{
  "source": "patent US20070254907A1",
  "about": "“COMPOSITIONS AND METHODS FOR CONTROLLING INFESTATION” (HATCHTECH PTY LTD, priority 2003, published 2007)",
  "key": {"[1]": {"system": "lice eggs", "test": "Standard lice egg-hatching assay, commercial head lice products with rinse", "type": "in vivo", "settings": "for H (number of eggs successfully hatched) / Ph (number of eggs partly hatched): per replicate, products per manufacturer's recommendations, 1,10-phenanthroline 10 mM, rinsed", "procedure": "(§1) These three products were tested according to manufacturer's recommendations. Groups of eggs (24 hours old) were treated with the different products according to manufacturer's recommendations for the appropriate period of time (5-10 minutes) followed by a rinse for 1-2 minutes in 32° C. water. A positive controls (10 mM 1,10-phenanthroline) and two negative controls (no treatment and 20% Methanol) were also incorporated. Post exposure to the different products, the eggs were rinsed with warm water at 32° C. before being blotted dry on tissue paper and placed at 32° C., 70% RH and left to hatch. A second group of eggs, (48 hours old) were treated as previously described and also left to hatch. This process was repeated at 24 hour intervals on head lice eggs up to 120 hours post laying. This method of assaying inhibitors more closely mirrors the field situation where lice eggs will be at various stages of development on the head and permits the inhibitory effects to be observed on these different stages of the parasite.\nas §1, with “two” for “three”, “Two” for “A positive controls (10 mM 1,10-phenanthroline) and two”, “ethanol)” for “Methanol)”, “were” for “were rinsed with warm water at 32° C. before being”"}, "[2]": {"system": "Lice (L) and Plutella (P) eggs", "test": "whole plant or invertebrate", "settings": "read-out: Ovicidal activity %"}, "[3]": {"system": "house dust mite Dermatophagoides spp", "test": "House dust mite counts on treated filter paper", "type": "in vivo", "settings": "over the 2 week period, 25° C., 75% RH", "procedure": "A filter paper (90 mm diameter) was taken and placed in a Petri dish of the same dimensions. The filter paper was then wetted throughout with the test compound, using a small air pump sprayer. The wetted filter paper was then allowed to dry in free flowing air. 200 mg dust mite medium, containing roughly 500 mites/g, was placed on the filter paper and the number of mites counted under a microscope. The arena was then left for 2 weeks on an incubator at 25° C. and 75% RH. After 2 weeks the number of mites in the arena was counted for a second time. This experiment was repeated 3 times with the test compound and a further 3 times using water as a control."}, "[4]": {"system": "body louse eggs", "test": "Standard body louse egg assay with formulated compound", "type": "in vivo, body lice", "settings": "10 minute exposure; for % of eggs that hatched following treatment: formulated", "procedure": "5,5′-dimethyl-2,2′-dipyridyl was formulated and evaluated in the standard body louse egg assay. Body louse eggs (15-30 per replicate) of varying ages were exposed for 10 minute to the test solutions or a placebo or left untreated, followed by a 1 minute water wash and blotted dry. The eggs were then incubated at 30° C. over the following 10 days post treatment and the percentage of eggs that successfully hatched was determined (Table 20)."}, "[5]": {"system": "head lice eggs", "test": "Head lice egg hatching with formulated compound", "type": "in vivo", "settings": "20 mM formulation", "procedure": "Gravid female lice were permitted to lay eggs. The eggs were counted, inspected under a light microscope and all eggs that appeared undamaged were allocated to one of two treatment groups. One group was exposed to 5′-dimethyl-2,2′-dipyridyl in a formulation, while the second group was exposed to the formulation only. The protocol was as follows:\nTreatments: 5'-dimethyl-2,2'dipyridyl (20mM) n=10\nVehicle control only n=10\nExposure time: 10 minutes\nWash time: 1 minute @˜37° C.\nIncubation: All eggs were placed at 31° C. in a humid incubator and monitored for signs of development specifically of the eye and subsequent hatching, see Table 21."}},
  "note": "Values joined by “and” are separate entries in the source; they are usually repeats but may differ in a detail not shown here. Identical values can stand only once.",
  "data": [
    {"molecule": "c1cnc2c(c1)ccc1cccnc12", "note": "[1,10-phenanthroline, reference compound]", "values": [
      {"measurement": "ovicidal activity across the different stages of lice egg hatching", "setting": "[1]; 24-120 hr post egg laying", "result": "highly effective at inhibiting lice egg hatching"},
      {"measurement": "H (number of eggs successfully hatched)", "setting": "[1]; treated 24 hr post egg laying", "result": 0},
      {"measurement": "Ph (number of eggs partly hatched)", "setting": "[1]; treated 24 hr post egg laying", "result": 0},
      {"measurement": "H (number of eggs successfully hatched)", "setting": "[1]; treated 48 hr post egg laying", "result": 0},
      {"measurement": "Ph (number of eggs partly hatched)", "setting": "[1]; treated 48 hr post egg laying", "result": 0},
      {"measurement": "H (number of eggs successfully hatched)", "setting": "[1]; treated 72 hr post egg laying", "result": 0},
      {"measurement": "Ph (number of eggs partly hatched)", "setting": "[1]; treated 72 hr post egg laying", "result": 0},
      {"measurement": "H (number of eggs successfully hatched)", "setting": "[1]; treated 96 hr post egg laying", "result": 0},
      {"measurement": "Ph (number of eggs partly hatched)", "setting": "[1]; treated 96 hr post egg laying", "result": 0},
      {"measurement": "H (number of eggs successfully hatched)", "setting": "[1]; treated 120 hr post egg laying", "result": "0 and 4 and 1"},
      {"measurement": "Ph (number of eggs partly hatched)", "setting": "[1]; treated 120 hr post egg laying", "result": 0},
      {"measurement": "inhibition at 10000 µM", "setting": "[2]", "result": 100, "unit": "%"}
    ]},
    {"molecule": "Cc1ccc(-c2ccc(C)cn2)nc1", "note": "[5,5′-dimethyl-2,2′-dipyridyl]", "values": [
      {"measurement": "mite populations on the treated filter papers", "setting": "[3]", "result": "small decline"},
      {"measurement": "ovicidal activity of formulated compound on body louse eggs", "setting": "[4]; 1 minute water wash", "result": "strong dose dependency of ovicidal activity"},
      {"measurement": "% of eggs that hatched following treatment", "setting": "[4]; 1 mM, age of eggs 24 hr", "result": 91, "unit": "%"},
      {"measurement": "% of eggs that hatched following treatment", "setting": "[4]; 1 mM, age of eggs 48 hr", "result": 80, "unit": "%"},
      {"measurement": "% of eggs that hatched following treatment", "setting": "[4]; 1 mM, age of eggs 96 hr", "result": 82, "unit": "%"},
      {"measurement": "% of eggs that hatched following treatment", "setting": "[4]; 1 mM, age of eggs 120 hr", "result": 86, "unit": "%"},
      {"measurement": "% of eggs that hatched following treatment", "setting": "[4]; 5 mM, age of eggs 24 hr", "result": 21, "unit": "%"},
      {"measurement": "% of eggs that hatched following treatment", "setting": "[4]; 5 mM, age of eggs 48 hr", "result": 58, "unit": "%"},
      {"measurement": "% of eggs that hatched following treatment", "setting": "[4]; 5 mM, age of eggs 96 hr", "result": 64, "unit": "%"},
      {"measurement": "% of eggs that hatched following treatment", "setting": "[4]; 5 mM, age of eggs 120 hr", "result": 65, "unit": "%"},
      {"measurement": "% of eggs that hatched following treatment", "setting": "[4]; 10 mM, age of eggs 24 hr", "result": 4, "unit": "%"},
      {"measurement": "% of eggs that hatched following treatment", "setting": "[4]; 10 mM, age of eggs 48 hr", "result": 7, "unit": "%"},
      {"measurement": "% of eggs that hatched following treatment", "setting": "[4]; 10 mM, age of eggs 96 hr", "result": 10, "unit": "%"},
      {"measurement": "% of eggs that hatched following treatment", "setting": "[4]; 10 mM, age of eggs 120 hr", "result": 12, "unit": "%"},
      {"measurement": "% of eggs that hatched following treatment", "setting": "[4]; 30 mM, age of eggs 24 hr", "result": 0, "unit": "%"},
      {"measurement": "% of eggs that hatched following treatment", "setting": "[4]; 30 mM, age of eggs 48 hr", "result": 0, "unit": "%"},
      {"measurement": "% of eggs that hatched following treatment", "setting": "[4]; 30 mM, age of eggs 96 hr", "result": 0, "unit": "%"},
      {"measurement": "% of eggs that hatched following treatment", "setting": "[4]; 30 mM, age of eggs 120 hr", "result": 0, "unit": "%"},
      {"measurement": "egg hatching in head lice", "setting": "[5]; 10 minutes, 1 minute wash", "result": "significantly suppress egg hatching"},
      {"measurement": "eggs that failed to hatch (did not develop)", "setting": "[5]; n=10 eggs", "result": 80, "unit": "%"}
    ]}
  ]
}
